Source: ChEMBL document CHEMBL3580626, “Scaffold hopping of potential anti-tumor agents by WEGA: a shape-based approach” (Medchemcomm, 2014)

Key:
[1] = test system: HepG2; test: Cytotoxicity against human HepG2 cells assessed as reduction in cell viability after 48 hrs by CCK8 assay; type: functional, cell-based; details: HepG2, 48 h
[2] = Cytotoxicity against human LO2 cells assessed as reduction in cell viability after 48 hrs by CCK8 assay; type: cell-based; details: L02, 48 h

Compound	IC50 ([1]; read-out: pIC50 (converted))	IC50 [2]	IC50 ([1]; read-out: IC50)
COC1=Cc2ccccc2Nc2ccccc21	70.8 µM	–	–
COC1=Cc2ccccc2N(C(N)=O)c2ccccc21	> 158 µM	–	–
COc1ccccc1OCCNCC(O)COc1cccc2[nH]c3ccccc3c12 (stereo unspecified) [CARVEDILOL]	17.4 µM	85 µM	–
OCCN1CCN(CCCN2c3ccccc3Sc3ccc(Cl)cc32)CC1 [PERPHENAZINE]	16.2 µM	> 160 µM	–
CCN1c2ccccc2CCc2ccc(Cl)cc21	> 158 µM	–	–
OCCN1CCN(CCCN2c3ccccc3Sc3ccc(C(F)(F)F)cc32)CC1 [FLUPHENAZINE]	4.37 µM	> 160 µM	4.4 µM
CC(CN(C)C)CN1c2ccccc2Sc2ccccc21 (stereo unspecified) [METHYLPROMAZINE]	61.7 µM	–	–
CC(=O)N1c2ccccc2CCc2ccc(N)cc21	> 158 µM	–	–
CC(CN1c2ccccc2S(=O)(=O)c2ccccc21)N(C)C (stereo unspecified)	> 158 µM	–	–
c1ccc2c(c1)[nH]c1cccc(OCC3CO3)c12 (stereo unspecified)	17 µM	> 160 µM	–
NC(=O)N1c2ccccc2C=Cc2ccccc21 [CARBAMAZEPINE]	> 158 µM	–	–
C1=Cc2ccccc2Nc2ccccc21 [IMINOSTILBENE]	> 158 µM	–	–
Oc1cccc2[nH]c3ccccc3c12	123 µM	–	–
O=C(Cl)N1c2ccccc2C=Cc2ccccc21	33.9 µM	–	–
CN1CCN(C2=Nc3cc(Cl)ccc3Nc3ccccc32)CC1 [CLOZAPINE]	47.9 µM	–	–
CC(C(=O)O)c1ccc2c(c1)[nH]c1ccc(Cl)cc12 (stereo unspecified) [CARPROFEN]	166 µM	–	–
c1ccc2c(c1)Nc1ccccc1O2 [PHENOXAZINE]	204 µM	–	–
NC(=O)N1c2ccccc2CC(=O)c2ccccc21 [OXCARBAZEPINE]	19.5 µM	> 160 µM	–
CC(=O)N1c2ccccc2CCc2ccc(Cl)cc21	> 158 µM	–	–
c1ccc2c(c1)CCc1ccccc1N2	> 158 µM	–	–
